Experimental data: the NIST ThermoML archive (doi:10.1016/j.jct.2013.03.003)

Assay: osmotic coefficient (dimensionless); mn = molality of the nth substance listed, in mol/kg
Details: 298.15 K, Liquid, isopiestic method

[Br-].[K+] [potassium bromide] + O
Details	osmotic coefficient
m1 = 2.545	0.9434
m1 = 2.703	0.9473
m1 = 2.947	0.9544
m1 = 3.171	0.9579
m1 = 3.46	0.965
m1 = 3.778	0.9757
m1 = 4.026	0.9849
m1 = 4.214	0.9911
m1 = 4.694	1.0054
m1 = 5.41	1.032
